Measured values: patent US8802674B2, “Aminopyrimidine derivatives as LRRK2 modulators” (Genentech, Inc., priority 2011, dated 2014)

molecular target: LRRK2 (Homo sapiens (Human), UniProt Q5S007, G2019S); test: In Vitro LRRK2 LabChip Assay; type: biochemical; conditions: Table 4
Procedure, shortened: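 Phosphorylated and unphosphorylated peptides were separated by capillary electrophoresis and quantified by fluorescence. Ki came from a tight-binding equation, given in μM.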

LRRK2, sequence (Q5S007 970-2527 G2019S limits assumed): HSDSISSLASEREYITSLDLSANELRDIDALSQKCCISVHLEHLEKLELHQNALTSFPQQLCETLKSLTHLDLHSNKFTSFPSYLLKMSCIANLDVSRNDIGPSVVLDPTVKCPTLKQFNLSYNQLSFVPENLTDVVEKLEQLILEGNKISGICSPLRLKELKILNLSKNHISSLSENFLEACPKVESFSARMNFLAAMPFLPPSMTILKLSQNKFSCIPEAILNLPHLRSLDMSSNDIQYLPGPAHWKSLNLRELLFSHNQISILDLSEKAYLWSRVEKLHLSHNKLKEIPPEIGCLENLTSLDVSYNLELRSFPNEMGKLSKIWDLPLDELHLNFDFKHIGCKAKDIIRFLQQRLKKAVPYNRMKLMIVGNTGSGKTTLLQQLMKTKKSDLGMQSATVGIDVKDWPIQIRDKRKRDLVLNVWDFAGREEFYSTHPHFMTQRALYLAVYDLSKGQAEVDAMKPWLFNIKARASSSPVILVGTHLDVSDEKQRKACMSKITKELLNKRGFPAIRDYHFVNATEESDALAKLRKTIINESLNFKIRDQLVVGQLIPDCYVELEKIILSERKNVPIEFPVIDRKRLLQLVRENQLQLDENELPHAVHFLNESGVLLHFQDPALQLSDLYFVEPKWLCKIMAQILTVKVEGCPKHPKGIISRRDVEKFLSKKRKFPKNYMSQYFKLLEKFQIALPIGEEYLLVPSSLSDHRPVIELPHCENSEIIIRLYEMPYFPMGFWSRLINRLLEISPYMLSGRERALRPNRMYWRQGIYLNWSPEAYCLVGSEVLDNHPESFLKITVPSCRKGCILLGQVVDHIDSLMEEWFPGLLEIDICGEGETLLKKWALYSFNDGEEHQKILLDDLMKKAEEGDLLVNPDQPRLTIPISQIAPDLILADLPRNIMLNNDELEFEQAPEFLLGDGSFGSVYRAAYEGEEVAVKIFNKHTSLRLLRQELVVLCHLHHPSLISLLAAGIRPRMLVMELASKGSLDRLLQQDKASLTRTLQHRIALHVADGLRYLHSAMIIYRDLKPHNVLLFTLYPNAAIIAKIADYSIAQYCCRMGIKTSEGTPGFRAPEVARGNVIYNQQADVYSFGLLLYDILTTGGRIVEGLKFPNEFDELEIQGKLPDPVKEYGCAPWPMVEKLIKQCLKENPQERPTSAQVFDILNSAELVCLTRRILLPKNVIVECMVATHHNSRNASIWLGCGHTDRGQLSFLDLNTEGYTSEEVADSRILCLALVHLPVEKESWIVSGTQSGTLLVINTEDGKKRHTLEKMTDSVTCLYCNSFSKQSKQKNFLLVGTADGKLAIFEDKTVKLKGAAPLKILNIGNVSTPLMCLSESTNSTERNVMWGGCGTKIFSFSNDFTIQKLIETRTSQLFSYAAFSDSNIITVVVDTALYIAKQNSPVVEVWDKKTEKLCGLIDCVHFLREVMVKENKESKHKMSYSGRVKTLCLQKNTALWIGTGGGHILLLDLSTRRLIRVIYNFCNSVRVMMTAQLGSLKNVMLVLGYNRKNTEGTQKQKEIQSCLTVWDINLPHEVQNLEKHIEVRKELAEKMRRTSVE

Compared with `CCNc1nc(Nc2cc(OC)c(C(=O)N3CCOCC3)cc2Cl)ncc1C(F)(F)F` [Example 147, [5-Chloro-4-(4-ethylamino-5-trifluoromethyl-pyrimidin-2-ylamino)-2-methoxy-phenyl]-morpholin-4-yl-methanone], `CCNc1nc(Nc2cc(OC)c(C(=O)N3CCOCC3)cc2F)ncc1C(F)(F)F` [Example 238, (4-(4-(ethylamino)-5-(trifluoromethyl)pyrimidin-2-ylamino)-5-fluoro-2-methoxyphenyl) (morpholino) methanone] is 2.4-fold lower in Ki: 3.4 nM for the first, 1.4 nM for the second.

`CNc1nc(Nc2cc(OC)c(C(=O)NC3CCN(C)CC3)cc2Cl)ncc1Cl` [Example 155, 5-Chloro-4-(5-chloro-4-methylamino-pyrimidin-2-ylamino)-2-methoxy-N-(1-methyl-piperidin-4-yl)-benzamide] and `CNc1nc(Nc2cc(OC)c(C(=O)N3CCC(C#N)C3)cc2Cl)ncc1Cl` (stereo not drawn) [Example 171, l-[5-Chloro-4-(5-chloro-4-methylamino-pyrimidin-2-ylamino)-2-methoxy-benzoyl]-pyrrolidine-3-carbonitrile] are the same in Ki: 4.5 nM for the first, 4.5 nM for the second.

Compared with `COc1cc(C(=O)N2CCOCC2)ccc1Nc1ncc(Cl)c(NC2CCOC2)n1` (stereo not shown) [Example 214, {4-[5-Chloro-4-(tetrahydro-furan-3-ylamino)-pyrimidin-2-ylamino]-3-methoxy-phenyl}-morpholin-4-yl-methanone], `CNc1nc(Nc2ccc(C(=O)N3CCOCC3)cc2OC)ncc1C1CC1` [Example 66, [4-(5-Cyclopropyl-4-methylamino-pyrimidin-2-ylamino)-3-methoxy-phenyl]-morpholin-4-yl-methanone] is 2-fold higher in Ki: 18.4 nM for the first, 35.9 nM for the second. The first binds more tightly here.

First: CNc1nc(Nc2ccc(C(=O)N3CCN(S(C)(=O)=O)CC3)cc2OC)ncc1Cl [Example 33, [4-(5-Chloro-4-methylamino-pyrimidin-2-ylamino)-3-methoxy-phenyl]-(4-methanesulfonyl-piperazin-1-yl)-methanone]
Second: CNc1nc(Nc2ccc(C(=O)N3CCN(C(=O)C4CC4)CC3)cc2OC)ncc1Cl [Example 70, [4-(5-Chloro-4-methylamino-pyrimidin-2-ylamino)-3-methoxy-phenyl]-(4-cyclopropanecarbonyl-piperazin-1-yl)-methanone]
The Ki of the first is 1.6-fold higher: 3.6 nM for the first, 2.2 nM for the second. The second binds more tightly here.

Compared with `CNc1nc(Nc2ccc(C(=O)N3CCOCC3)cc2C)ncc1Cl` [Example 232, (4-(5-chloro-4-(methylamino)pyrimidin-2-ylamino)-3-methylphenyl) (morpholino) methanone], `CNc1nc(Nc2ccc(C(=O)N3CCOCC3CO)cc2OC)ncc1Cl` (stereo not shown) [Example 40, [4-(5-Chloro-4-methylamino-pyrimidin-2-ylamino)-3-methoxy-phenyl]-(3-hydroxymethyl-morpholin-4-yl)-methanone] is 1.7-fold lower in Ki: 7.4 nM for the first, 4.4 nM for the second.

First: CNc1nc(Nc2ccc(C(=O)N3CCC(C#N)CC3)cc2OC)ncc1Br [Example 73, l-[4-(5-Bromo-4-methylamino-pyrimidin-2-ylamino)-3-methoxy-benzoyl]-piperidine-4-carbonitrile]
Second: CNc1nc(Nc2ccc(C(=O)N3CCC(C(F)(F)F)C3)cc2OC)ncc1Br (stereo not shown) [Example 72, [4-(5-Bromo-4-methylamino-pyrimidin-2-ylamino)-3-methoxy-phenyl]-(3-trifluoromethyl-pyrrolidin-1-yl)-methanone]
The Ki of the first is 1.6-fold lower: 4.1 nM for the first, 6.4 nM for the second. The first binds more tightly here.

`CNc1nc(Nc2cc(OC)c(CC(=O)N3CCOCC3)cc2OC)ncc1C(F)(F)F` [Example 227, 2-[2,5-Dimethoxy-4-(4-methylamino-5-trifluoromethyl-pyrimidin-2-ylamino)-phenyl]-1-morpholin-4-yl-ethanone] and `CNc1nc(Nc2cc(OC)c(CC(=O)N3CCOCC3)cc2OC)ncc1Br` [Example 220, 2-[4-(5-Bromo-4-methylamino-pyrimidin-2-ylamino)-2,5-dimethoxy-phenyl] 1-morpholin-4-yl-ethanone] are within 1.5-fold of each other in Ki: 3.7 nM for the first, 3.4 nM for the second.

Going from `CNc1nc(Nc2cc(OC)c(C(=O)N3CCC(OC)C3)cc2Cl)ncc1C(F)(F)F` (stereo not shown) [Example 246, (5-chloro-2-methoxy-4-(4-(methylamino)-5-(trifluoromethyl)pyrimidin-2-ylammo)phenyl)(3-methoxypyrrolidin-1-yl)methanone] to `CNc1nc(Nc2cc(OC)c(C(=O)N(C)C)cc2Cl)ncc1Cl` [Example 140, 5-Chloro-4-(5-chloro-4-methylamino-pyrimidin-2-ylamino)-2-methoxy-N,N-dimethyl-benzamide], the Ki rises from 5 nM to 11.8 nM (2.4-fold). The first binds more tightly here.

`CNc1nc(Nc2cc(OC)c(C(=O)NCCCN)cc2Cl)ncc1Cl` [Example 228, N-(3-Amino-propyl)-5-chloro-4-(5-chloro-4-methylamino-pyrimidin-2-ylamino)-2-methoxy-benzamide] and `CNc1nc(Nc2ccc(C(=O)N3CC4CC3CO4)cc2OC)ncc1Cl` (stereo not shown) [Example 62, [4-(5-Chloro-4-methylamino-pyrimidin-2-ylamino)-3-methoxy-phenyl]-(2-oxa-5-aza-bicyclo[2.2.1]hept-5-yl)-methanone] are within 1.5-fold of each other in Ki: 3.8 nM for the first, 4.5 nM for the second.

`CNc1nc(Nc2ccc(C(=O)N3CCC(F)(F)C3)cc2OC)ncc1C#N` [Example 208, 2-[4-(3,3-Difluoropyrrolidine-1-carbonyl)-2-methoxy-phenylamino]-4-methylamino-pyrimidine-5-carbonitrile] and `CNC(=O)c1ccc(Nc2ncc(C#N)c(NC)n2)c(OC)c1` [Example 197, 4-(5-Cyano-4-methylamino-pyrimidin-2-ylamino)-3-methoxy-N-methyl-benzamide] are within 1.5-fold of each other in Ki: 8.1 nM for the first, 6.6 nM for the second.

`CNc1nc(Nc2ccc(C(=O)N3CCN4CCCCC4C3)cc2OC)ncc1Cl` (stereo not shown) [Example 8, [4-(5-Chloro-4-methylamino-pyrimidin-2-ylamino)-3-methoxy-phenyl]-(octahydro-pyrido[1,2-a]pyrazin-2-yl)-methanone] and `COc1nc(Nc2ccc(C(=O)N3CCOCC3)cc2OC2CCC2)ncc1Br` [Example 85, [4-(5-Bromo-4-methoxy-pyrimidin-2-ylamino)-3-cyclobutoxy-phenyl]-morpholin-4-yl-methanone] are within 1.5-fold of each other in Ki: 3.5 nM for the first, 2.8 nM for the second.

Going from `CNc1nc(Nc2ccc(C(=O)NC(C)(C)C)cc2OC)ncc1C#N` [Example 206, N-tert-Butyl-4-(5-cyano-4-methylamino-pyrimidin-2-ylamino)-3-methoxy-benzamide] to `COc1nc(Nc2ccc(C(=O)N3CCOCC3)cc2OC2CC2)ncc1Br` [Example 218, [4-(5-Bromo-4-methoxy-pyrimidin-2-ylamino)-3-cyclopropoxy-phenyl]-morpholin-4-yl-methanone], the Ki falls from 4.6 nM to 2.5 nM (1.8-fold).

same assay, conditions: Table 5

`COc1cc(Nc2ncc(Cl)c(OC)n2)c(Cl)cc1C(=O)N1CCOCC1` [Example 260, [5-Chloro-4-(5-chloro-4-methoxy-pyrimidin-2-ylamino)-2-methoxy-phenyl]-morpholin-4-yl-methanone] was tested, and the Ki was 47 nM.

same assay, conditions: Table 6

`CNc1nc(Nc2ccc(C(=O)N3CCCC3)cc2OC)ncc1C(F)(F)F` [Example 274, [3-Methoxy-4-(4-methylamino-5-trifluoromethyl-pyrimidin-2-ylamino)-phenyl]-pyrrolidin-1-yl-methanone] and `CNc1nc(Nc2ccc(C(=O)N3CC(C)OC(C)C3)cc2OC)ncc1C(F)(F)F` (stereo not shown) [Example 277, (2,6-Dimethyl-morpholin-4-yl)-[3-methoxy-4-(4-methylamino-5-trifluoromethyl-pyrimidin-2-ylamino)-phenyl]-methanone] are within 1.5-fold of each other in Ki: 4.1 nM for the first, 4.9 nM for the second.

Going from `CCOc1cc(C(=O)N2CCOCC2)c(F)cc1Nc1ncc(C(F)(F)F)c(NC)n1` [Example 300, [5-Ethoxy-2-fluoro-4-(4-methylamino-5-trifluoromethyl-pyrimidin-2-ylamino)-phenyl]-morpholin-4-yl-methanone] to `CCNc1nc(Nc2ccc(C(=O)N3CCOCC3)cc2OC(C)C)ncc1C(F)(F)F` [Example 310, (4-(4-(ethylamino)-5-(trifluoromethyl)pyrimidin-2-yl-amino)-3-isopropoxyphenyl) (morpholino) methanone], the Ki falls from 9 nM to 4.5 nM (2-fold). The second binds more tightly here.

Compared with `CNc1nc(Nc2ccc(C(=O)N3CCOCC3)cc2OC2COC2)ncc1Cl` [Example 284, [4-(5-Chloro-4-methylamino-pyrimidin-2-ylamino)-3-(oxetan-3-yloxy)-phenyl]-morpholin-4-yl-methanone], `CNc1nc(Nc2cc(Cl)c(C(=O)N3CCOCC3)cc2OC)ncc1Cl` [Example 293, [2-Chloro-4-(5-chloro-4-methylamino-pyrimidin-2-ylamino)-5-methoxy-phenyl]-morpholin-4-yl-methanone] is 4.7-fold lower in Ki: 12.8 nM for the first, 2.7 nM for the second. The second binds more tightly here.

Going from `CNc1nc(Nc2ccc(C(=O)NC3COC3)cc2OC)ncc1C(F)(F)F` [Example 271, 3-Methoxy-4-(4-methylamino-5-trifluoromethyl-pyrimidin-2-ylamino)-N-oxetan-3-yl-benzamide] to `CNc1nc(Nc2ccc(C(=O)NC3CCN(C)CC3)cc2OC)ncc1C(F)(F)F` [Example 282, 3-Methoxy-4-(4-methylamino-5-trifluoromethyl-pyrimidin-2-ylamino)-N-(1-methyl-piperidin-4-yl)-benzamide], the Ki falls from 3.7 nM to 0.6 nM (6.2-fold).

Going from `CNc1nc(Nc2ccc(C(=O)NC3CCC(F)(F)CC3)cc2OC)ncc1C(F)(F)F` [Example 283, N-(4,4-Difluoro-cyclohexyl)-3-methoxy-4-(4-methylamino-5-trifluoromethyl-pyrimidin-2-ylamino)-benzamide] to `CNc1nc(Nc2cc(F)c(C(=O)N(C)CCOC)cc2OC)ncc1C(F)(F)F` [Example 303, 2-Fluoro-5-methoxy-N-(2-methoxy-ethyl)-N-methyl-4-(4-methylamino-5-trifluoromethyl-pyrimidin-2-ylamino)-benzamide], the Ki rises from 1.1 nM to 5.9 nM (5.4-fold).

For `COc1cc(C(=O)N2CCCC2)ccc1Nc1ncc(Cl)c(OC)n1` [Example 299, (4-(5-chloro-4-methoxypyrimidin-2-ylamino)-3-methoxyphenyl) (pyrrolidin-1-yl)methanone], the Ki was 6 nM.

same assay, conditions: Table 7

With `CNc1nc(Nc2cc(F)c(C(=O)N(C)C)cc2OC)ncc1C#N` [Example 320, 4-(5-Cyano-4-methylamino-pyrimidin-2-ylamino)-2-fluoro-5-methoxy-N,N-dimethyl-benzamide] the Ki was 62.5 nM.
